From patent publication US8406870B2, “Treating cancer using electromagnetic fields in combination with other treatment regimens” (priority 2006, dated 2013)
Where two headings read alike, the source gives them in different places.

Assays:
[1] = tested on: mouse melanoma (B16F10) cells; assay: XTT cell proliferation assay, first set of experiments; assay type: cell-based; details: 24 h
Procedure: (§1) The MDA-231 and B16F10 cells were obtained from ATCC (USA). […] The experiments were performed in 35 mm Petri dishes (NUNC, USA). Cisplatin and Taxol were obtained from Sigma (USA). A cell proliferation assay kit was obtained from Biological Industries Ltd., Israel. […] XTT is cleaved to formazan (absorbs at 450-500 nm) by the “succinate-tetrazolium reductase” system of the respiratory chain of the mitochondria and is active only in viable cells. Therefore, the amount of formazan dye (A450 nm) formed directly correlates to the number of metabolically active cells in culture. The XTT assay is widely used for the measurement of cell proliferation in response to growth factors, cytokines, mitogens, nutrients, anti-cancer drugs and physiological mediators.) The media in the Petri dish was replaced by fresh media (3 ml with or without Taxol or Cisplatin), thermo-couples were placed at the center, and the dish cover was replaced by one with attached electrodes. Cell samples without […] treatment were placed in CO2 incubator at 37° C. for 24 hours, while […] treated samples were placed in CO2 incubator at 25° C., also for 24 hours. Final incubation temperature of […] treated samples was 37±0.7° C. due to heating induced by TTFields (as measured by inserted thermo-couples). […] The rate of cell proliferation was calculated as a ratio of the final cell number to the initial cell number (OD1/OD0). […] For those samples that were subjected to TTFields, two-directional 200 kHz sinusoidal TTFields were generated by an appropriate waveform generator and an amplifier. The output of the amplifier was switched between two pairs of outputs every 250 mSec, with the outputs connected to two pairs of electrodes, insulated by a high dielectric constant ceramic (e.g., PMN-PT, EDO Corporation, Utah), positioned in the Petri dish as depicted in FIG. 1. Field intensity in the medium surrounding the cells was measured to be approximately 7 V/cm.

[2] = tested on: human breast cancer (MDA-231) cells; assay: as above; assay type: cell-based; details: 24 h
Procedure: as §1

[3] = tested on: human non-small cell lung cancer (H1299) cells; assay type: cell-based

O=P1(N(CCCl)CCCl)NCCCO1 (centres unmarked) [Cyclophosphamide]
effectiveness of combined treatment (MDA-MB-231 cells; 30 mM Cyclophosphamide + 1.75 V/cm TTFields applied for 1 hour): not effective | effectiveness of combined treatment (MDA-MB-231 cells; 30 mM Cyclophosphamide + 1.75 V/cm TTFields applied for 6 hours or more): fully effective

N.N.[Cl][Pt][Cl] [Cisplatin, cis-diamminedichloroplatinum(II)]
cell proliferation, drug alone compared with drug + TTFields ([1]; Cisplatin 15 μM): reduced cell proliferation to a lesser extent | cell proliferation under combined treatment ([2]; Cisplatin 15 μM + TTFields 200 kHz approx. 7 V/cm): complete cell proliferation arrest | reduced cell proliferation as compared with the control ([2]; Cisplatin 15 μM alone): 63%

CC(=O)O[C@H]1C(=O)[C@@]2(C)[C@H]([C@H](OC(=O)c3ccccc3)[C@]3(O)C[C@H](OC(=O)[C@H](O)[C@@H](NC(=O)c4ccccc4)c4ccccc4)C(C)=C1C3(C)C)[C@]1(OC(C)=O)CO[C@@H]1C[C@@H]2O [Paclitaxel]
cell proliferation, drug alone compared with drug + TTFields ([1]; Taxol 0.05 μM): reduced cell proliferation to a lesser extent | cells died under the influence of the combined treatment ([2]; Taxol 0.05 μM + TTFields 200 kHz approx. 7 V/cm): about 40% | reduced cell proliferation as compared with the control ([2]; Taxol 0.05 μM alone): 70% | Combination index CI40 ([3]; Paclitaxel + TTFields 1.25 V/cm): 0.73 | effect on cell proliferation rate, combination versus drug alone ([3]; Paclitaxel + TTFields 1.25 V/cm and 1.75 V/cm, all concentrations studied): significant additional decrease in cell proliferation rate | Combination index CI40 ([3]; Paclitaxel + TTFields 1.75 V/cm): 0.98 | induction of cell death ([3]; Paclitaxel alone at concentrations up to 500 nM): not observed | cell proliferation rate (% of control) ([3]; Paclitaxel alone, concentrations above 200 nM, 24 h): 55% | induction of cell death ([3]; higher concentrations of Paclitaxel in combination with TTFields): cell death is induced
